From patent publication US10106526B2, “Inhibitors of cyclin-dependent kinase 7 (CDK7)” (SYROS PHARMACEUTICALS, INC., priority 2014, dated 2018) come the findings set out here.

Where a name gives a salt, the structure may show the parent alone. A value given as a limit tells only on which side of the number the result lay.

For test [1], the target named is T1, CDK7 (Homo sapiens, UniProt P50613).
T1 construct: purchased Life Technologies (Adapta kinase assay service)
The test is described as follows: CDK7 kinase activity, Adapta kinase assay (Life Technologies). In kind it is biochemical. The settings on record: Adapta kinase assay at Life Technologies; 10 μM down to 0.514 nM, 3-fold serial dilutions; read-out: CDK7 Inhibition (IC50). On the procedure:
Compounds of the invention were assayed for CDK7 activity at Life Technologies™ (Grand Island, N.Y.) using their commercially available Adapta® kinase assay services. Compounds were tested at concentrations ranging from 10 μM down to 0.514 nM in a series of 3-fold serial dilutions. Details of these assays, including substrates used, are available on the Life Technologies web site (http://www.lifetechnologies.com/us/en/home/life-science/drug-discovery/target-and-lead-identification-and-validation/kinasebiology/kinase-activity-assays.html).

Test [2] has as its system Jurkat cells. The test is described as follows: Inhibition of proliferation of Jurkat cells (CellTiter-Glo, 72 hour). The settings on record: 10 μM to 316 pM. It counts as cell-based, human. On the procedure:
Jurkat cells are a cell line established from a human T cell leukemia. Representative compounds of the invention were tested at different concentrations (from 10 μM to 316 pM; 0.5 log serial dilutions) for their ability to inhibit the proliferation of Jurkat cells. Known CDK inhibitors flavopiridol and triptolide were used as positive controls. Cells were grown in RPMI 1640+10% FBS+1% Glutamax. The cells were supplemented with FBS (Life Technologies) and 100 U·mL^− penicillin, 100 μg·mL^− streptomycin (Invitrogen) and cultured at 37° C. in a humidified chamber in the presence of 5% CO2. Proliferation assays were conducted over a 72 hour time period. CellTiter-Glo® (Promega Corporation, Madison, Wis. USA) was used to assess the anti-proliferative effects of the compounds following manufacturer's directions and utilizing the reagents supplied with the CellTiter-Glo® kit. In this table, “A” represents an IC50 of less than 500 nM; “B” an IC50 of between 500 nM and 5 μM; and “C” an IC50 of greater than 5 μM.
(Cellular ATP, detected with luciferase, serves as a proxy for viable cell number.)

The subject of test [3] is A673 cells. The test is described as follows: Inhibition of proliferation of A673 cells (CyQUANT, 72 hour). In kind it is cell-based, human. To be noted: Homo sapiens, 72 hour proliferation. The protocol: A673 cells are a cell line derived from human muscle Ewing's sarcoma. Representative compounds of the invention were tested at different concentrations (from 4 μM to 126.4 pM; 0.5 log serial dilutions) for their ability to inhibit the proliferation of A673 cells. Known CDK inhibitors flavopiridol and triptolide were used as positive controls. Cells were grown in Dulbecco's Modified Eagle's Medium, +10% FBS+1 mM Sodium Pyruvate. The cells were cultured at 37° C. in a humidified chamber in the presence of 5% CO2. Proliferation assays were conducted over a 72 hour time period. CyQUANT® (Life Technologies, Chicago, Ill. USA) was used to assess the anti-proliferative effects of the compounds following manufacturer's directions and utilizing the reagents supplied with the CyQUANT® kit. In this table, “A” represents an IC50 of less than 500 nM; “B” an IC50 of between 500 nM and 5 μM; and “C” an IC50 of greater than 5 μM.

T1 sequence (P50613 whole entry): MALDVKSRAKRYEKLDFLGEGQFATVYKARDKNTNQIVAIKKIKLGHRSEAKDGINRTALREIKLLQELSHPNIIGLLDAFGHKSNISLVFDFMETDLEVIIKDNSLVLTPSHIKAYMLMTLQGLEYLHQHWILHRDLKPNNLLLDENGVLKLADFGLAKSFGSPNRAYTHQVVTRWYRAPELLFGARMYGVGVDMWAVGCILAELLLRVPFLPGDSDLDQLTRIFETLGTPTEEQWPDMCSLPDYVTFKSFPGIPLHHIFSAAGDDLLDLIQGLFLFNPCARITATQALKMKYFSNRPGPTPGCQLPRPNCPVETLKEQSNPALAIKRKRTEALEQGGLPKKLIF
T1 sequence (P51946 whole entry partner): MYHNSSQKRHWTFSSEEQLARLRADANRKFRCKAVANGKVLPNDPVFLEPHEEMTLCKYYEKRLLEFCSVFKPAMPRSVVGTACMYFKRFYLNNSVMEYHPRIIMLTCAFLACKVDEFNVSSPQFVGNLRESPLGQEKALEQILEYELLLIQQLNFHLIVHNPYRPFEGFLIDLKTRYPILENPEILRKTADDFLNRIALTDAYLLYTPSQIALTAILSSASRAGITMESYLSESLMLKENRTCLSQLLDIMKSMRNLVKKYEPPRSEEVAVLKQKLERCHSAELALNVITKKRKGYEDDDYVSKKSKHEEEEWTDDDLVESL
T1 sequence (P51948 whole entry partner): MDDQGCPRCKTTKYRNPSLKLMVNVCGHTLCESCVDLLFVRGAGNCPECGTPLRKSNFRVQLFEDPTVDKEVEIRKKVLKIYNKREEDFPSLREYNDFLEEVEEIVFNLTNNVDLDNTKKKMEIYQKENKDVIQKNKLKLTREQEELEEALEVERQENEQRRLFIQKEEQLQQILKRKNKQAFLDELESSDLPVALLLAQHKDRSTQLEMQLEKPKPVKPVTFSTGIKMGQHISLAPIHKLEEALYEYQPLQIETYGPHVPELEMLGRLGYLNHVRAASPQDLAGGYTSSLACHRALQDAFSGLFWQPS

Turning to `CN(C)C/C=C/C(=O)NCC(F)(F)C(=O)N[C@H]1CCC[C@@H](Nc2ncc(Cl)c(-c3c[nH]c4ccccc34)n2)C1` [Compound 111, (E)-N-(3-((1S,3R)-3-(5-chloro-4-(1H-indol-3-yl)pyrimidin-2-ylamino)cyclohexlamino)-2,2-difluoro-3-oxopropyl)-4-(dimethylamino)but-2-enamide], the 50% inhibitory concentration (IC50) in test [1] was less than 100 nM; in test [2] (Homo sapiens), less than 500 nM. On the same counts, the results for `CN(C)C/C=C/C(=O)NCCCCC(=O)N1CC[C@@H](Nc2ncc(Cl)c(-c3c[nH]c4ccccc34)n2)C1` [Compound 100, (E)-N-(5-((R)-3-(5-chloro-4-(1H-indol-3-yl)pyrimidin-2-ylamino)pyrrolidin-1-yl)-5-oxopentyl)-4-(dimethylamino)but-2-enamide] are less than 100 nM and 500 to 5000 nM. On the same counts, the results for `Nc1ccc(C(=O)N[C@H]2CCC[C@@H](Nc3ncc(Cl)c(-c4c[nH]c5ccccc45)n3)C2)nc1` [Compound 1007, 5-amino-N-((1S,3R)-3-(5-chloro-4-(1H-indol-3-yl)pyrimidin-2-ylamino)cyclohexyl)picolinamide] are less than 100 nM and 500 to 5000 nM. Turning to `CN(C)CCCC(=O)NCCc1cc2ccc(Nc3ncc(Cl)c(-c4c[nH]c5ccccc45)n3)cc2[nH]1` [Compound 1029, N-(2-(6-(5-chloro-4-(1H-indol-3-yl)pyrimidin-2-ylamino)-1H-indol-2-yl)ethyl)-4-(dimethylamino)butanamide], the IC50 in test [2] (Homo sapiens) lay in the range of 500 to 5000 nM. Still for that read-out and setting: to `Nc1ccc(C(=O)Nc2cccc(Nc3ncc(Cl)c(-c4c[nH]c5ccccc45)n3)c2)cn1` [Compound 1024, 6-amino-N-(3-(5-chloro-4-(1H-indol-3-yl)pyrimidin-2-ylamino)phenyl)nicotinamide] belongs 500 to 5000 nM. Take `O=C(Nc1cccc(Nc2ncc(Cl)c(-c3c[nH]c4ccccc34)n2)c1)C1CCCNC1` (centres unmarked) [compound 1003]: the IC50 in test [1] was less than 100 nM; in test [2], 500 to 5000 nM. Turning to `C=CC(=O)N(C)[C@H]1CCC[C@@H](Nc2ncc(Cl)c(-c3c[nH]c4ccccc34)n2)C1` [Compound 171, N-((1S,3R)-3-(5-chloro-4-(1H-indol-3-yl)pyrimidin-2-ylamino)cyclohexyl)-N-methylacrylamide], the 50% inhibitory concentration (IC50) was less than 100 nM in test [1] and less than 500 nM in test [2] (Homo sapiens).

With `CN(C)CC=CC(=O)N1CCC(CNC2CCC(Nc3ncc(Cl)c(-c4c[nH]c5ccccc45)n3)CC2)CC1` (centres unmarked) [compound 196], the concentration for half-maximal inhibition (IC50) in test [1] is less than 100 nM; in test [2] it was 500 to 5000 nM.

`CN(C)C/C=C/C(=O)N1CCC[C@H](C(=O)Nc2cccc(Nc3ncc(Cl)c(-c4c[nH]c5ccccc45)n3)c2)C1` [Compound 104, (3S,E)-N-(3-(5-chloro-4-(1H-indol-3-yl)pyrimidin-2-ylamino)phenyl)-1-(4-(dimethylamino)but-2-enoyl)piperidine-3-carboxamide]: the IC50 in test [1] was less than 100 nM; in test [2] (Homo sapiens), 500 to 5000 nM. Consider `C=CC(=O)N1CCCC(CN[C@H]2CC[C@@H](Nc3ncc(Cl)c(-c4c[nH]c5ccccc45)n3)CC2)C1` (single isomer, unassigned) [compound 195], for which the IC50 in test [1] is 100 to 1000 nM; in test [2], less than 500 nM.

As to `CN(C)CC=CC(=O)N1CCCC(CNC2CCC(Nc3ncc(Cl)c(-c4c[nH]c5ccccc45)n3)CC2)C1` (racemic) [compound 194], the results for the 50% inhibitory concentration (IC50) in test [1] and in test [2] were 100 to 1000 nM and less than 500 nM, respectively.

With `C=CC(=O)N1CCN(C[C@@H]2CCC[C@H](Nc3ncc(Cl)c(-c4c[nH]c5ccccc45)n3)C2)CC1` [Compound 204, 1-(4-(((1R,3S)-3-((5-chloro-4-(1H-indol-3-yl)pyrimidin-2-yl)amino)cyclohexyl)methyl)-piperazin-1-yl)prop-2-en-1-One], the half-maximal inhibitory concentration (IC50) in test [1] is less than 100 nM; in test [2] (Homo sapiens) it was less than 500 nM. On to `CN(C)CC=CC(=O)N1CCC(CNC2CCC(Nc3ncc(Cl)c(-c4c[nH]c5ccccc45)n3)CC2)CC1` (centres unmarked) [compound 197], for which the concentration for half-maximal inhibition (IC50) in test [1] was less than 100 nM; in test [2], 500 to 5000 nM. Take `C=CC(=O)N1CCN(C[C@H]2CCC[C@@H](Nc3ncc(Cl)c(-c4c[nH]c5ccccc45)n3)C2)CC1` [Compound 129, 1-(4-(((1S,3R)-3-((5-chloro-4-(1H-indol-3-yl)pyrimidin-2-yl)amino)cyclohexyl)methyl)piperazin-1-yl)prop-2-en-1-One]: the figures for the IC50 in test [1] and in test [3] were less than 100 nM and less than 500 nM, respectively. Molecule `Nc1nc(C(=O)N[C@H]2CCC[C@@H](Nc3ncc(Cl)c(-c4c[nH]c5ccccc45)n3)C2)cs1` [Compound 1026, 2-amino-N-((1S,3R)-3-(5-chloro-4-(1H-indol-3-yl)pyrimidin-2-ylamino)cyclohexyl)thiazole-4-carboxamide] gave a 50% inhibitory concentration (IC50) in test [2] (Homo sapiens) of 500 to 5000 nM. Regarding `N#Cc1cnc(N[C@@H]2CCC[C@H](NC(=O)c3ccc(N)cn3)C2)nc1-c1c[nH]c2ccccc12` [Compound 1009, 5-amino-N-((1S,3R)-3-(5-cyano-4-(1H-indol-3-yl)pyrimidin-2-ylamino)cyclohexyl)picolinamide], the half-maximal inhibitory concentration (IC50) in test [1] was less than 100 nM.

Consider `C=CC(=O)NCCC(=O)N[C@H]1CCC[C@@H](Nc2ncc(Cl)c(-c3c[nH]c4ccccc34)n2)C1` [Compound 172, N-(3-((1S,3R)-3-(5-chloro-4-(1H-indol-3-yl)pyrimidin-2-ylamino)cyclohexylamino)-3-oxopropyl)acrylamide], for which the results for the IC50 in test [1] and in test [2] (Homo sapiens) were less than 100 nM and less than 500 nM, respectively. For `CN(C)C/C=C/C(=O)N1CC[C@@H](Nc2ncc(Cl)c(-c3c[nH]c4ccccc34)n2)C1` [Compound 176], the IC50 in test [1] was less than 100 nM; in test [2], 500 to 5000 nM. Consider `CN(C)C/C=C/C(=O)N[C@H]1CC[C@H](C(=O)Nc2cccc(Nc3ncc(Cl)c(-c4c[nH]c5ccccc45)n3)c2)CC1` [Compound 102, (trans,E)-N-(3-(5-chloro-4-(1H-indol-3-yl)pyrimidin-2-ylamino)phenyl)-4-(4-(dimethylamino)but-2-enamido)cyclohexanecarboxamide], for which the results for the IC50 in test [1] and in test [2] (Homo sapiens) were less than 100 nM and 500 to 5000 nM, respectively.

Consider `NCCCCC(=O)N1CC[C@@H](Nc2ncc(Cl)c(-c3c[nH]c4ccccc34)n2)C1` [Compound 1000, 5-((R)-3-(5-chloro-4-(1H-indol-3-yl)pyrimidin-2-ylamino)pyrrolidin-1-yl)-5-oxopentan-1-aminium chloride], for which the IC50 in test [1] was less than 100 nM; in test [2] (Homo sapiens) it was 500 to 5000 nM.

`NCCc1cc2ccc(Nc3ncc(Cl)c(-c4c[nH]c5ccccc45)n3)cc2[nH]1` [Compound 1028, 2-(2-aminoethyl)-N-(5-chloro-4-(1H-indol-3-yl)pyrimidin-2-yl)-1H-indol-6-amine.HCl]: in test [2] (Homo sapiens), the IC50 is 500 to 5000 nM. Turning to `C=CC(=O)N1CCC(C(=O)N2CC[C@H](Nc3ncc(Cl)c(-c4c[nH]c5ccccc45)n3)C2)CC1` [Compound 210, (S)-1-(4-(3-((5-chloro-4-(1H-indol-3-yl)pyrimidin-2-yl)amino)pyrrolidine-1-carbonyl)piperidin-1-yl)prop-2-en-1-One], the values for the concentration for half-maximal inhibition (IC50) in test [1] and in test [2] (Homo sapiens) were 100 to 1000 nM and 500 to 5000 nM, respectively.

Consider `C=CC(=O)NC12CC(C(=O)Nc3cccc(Nc4ncc(Cl)c(-c5c[nH]c6ccccc56)n4)c3)(C1)C2` (racemic) [Compound 108, N-(3-{[5-chloro-4-(1H-indol-3-yl)pyrimidin-2-yl]amino}phenyl)-3-(prop-2-enamido)bicyclo[1.1.1]pentane-1-carboxamide], for which, in test [1], the half-inhibitory concentration (IC50) is more than 1000 nM. The molecule `CN(C)CCCC(=O)Nc1ccc(C(=O)Nc2cccc(Nc3ncc(Cl)c(-c4c[nH]c5ccccc45)n3)c2)nc1` [compound 1023] had a concentration for half-maximal inhibition (IC50) in test [2] of 500 to 5000 nM. Take `NCC(F)(F)C(=O)N[C@H]1CCC[C@@H](Nc2ncc(Cl)c(-c3c[nH]c4ccccc34)n2)C1` [Compound 1010, 3-amino-N-((1S,3R)-3-(5-chloro-4-(1H-indol-3-yl)pyrimidin-2-ylamino)cyclohexyl)-2,2-difluoropropanamide]: the IC50 in test [1] is less than 100 nM. Regarding `Nc1ccc(C(=O)N[C@H]2CCC[C@@H](Nc3ncc(Cl)c(-c4c[nH]c5ccccc45)n3)C2)cn1` [Compound 1025, 6-amino-N-((1S,3R)-3-(5-chloro-4-(1H-indol-3-yl)pyrimidin-2-ylamino)cyclohexyl)nicotinamide], the concentration for half-maximal inhibition (IC50) in test [2] (Homo sapiens) was 500 to 5000 nM. As to `Nc1ccc(C(=O)N[C@H]2CCC[C@@H](Nc3ncc(Cl)c(-c4c[nH]c5ccccc45)n3)C2)nn1` [Compound 1027, 6-amino-N-((1S,3R)-3-(5-chloro-4-(1H-indol-3-yl)pyrimidin-2-ylamino)cyclohexyl)pyridazine-3-carboxamide], in test [2] (Homo sapiens), the half-inhibitory concentration (IC50) lay within 500 to 5000 nM.

The IC50 is the midpoint of a concentration-inhibition curve.
